Laboratory results taken from US9481667B2, “Salts and solid forms of isoquinolinones and composition comprising and methods of using the same” (Infinity Pharmaceuticals, Inc., priority 2013, dated 2016).
Converted amounts (≈) assume the structure as drawn.

Experiments:
Type in all cases: physicochemical
[1] = Thermodynamic aqueous solubility; conditions: aqueous, water, thermodynamic from solid; at pH 6.47
[2] = Storage at 25° C./93% RH (solid-state stability); conditions: 1 week, solid form by XRPD
[3] = Stability of Hydrate Form 2 of free base: maturation in water or acetic acid:water; conditions: 40 hours
Experimental: Both solids obtained from maturation at 25° C.

[4] = Storage at 40° C./75% RH (solid-state stability); conditions: 1 week, solid form by XRPD
Experimental: The crystalline solids were filtered, dried at ambient conditions, and stored at 40° C./75% RH for 1 week and analyzed by ^1H NMR/IC.
Samples from the screen using amorphous free base Compound 1 were analysed by ^1H-NMR and DSC, and re-analysis by XRPD was also carried out after drying at 50° C./vacuum and storage at 40° C./75% RH (the same sample was dried and stored at elevated humidity).

Dissolution = conditions: in 15 min at pH 1.2; listed as Form 2 of free base hydrate
Experimental: The dissolution rate for the hydrate was about 80% in 15 min at pH 1.2 and about 20% in 60 min at pH 2.5. The dissolution rate of the bis-sulfuric acid salt was 100% in 15 min at both pH 1.2 and pH 2.5.

[5] = Gravimetric vapour sorption (GVS); conditions: for GVS: moisture content reached on uptake at 40-50% RH: remains stable on sorption up to 90% RH and on desorption down to 10% RH
Experimental: Sorption isotherms were obtained using a Hiden IGASorp moisture sorption analyser, controlled by CFRSorp software. The sample temperature was maintained at 25° C. by a Huber re-circulating water bath. The humidity was controlled by mixing streams of dry and wet nitrogen, with a total flow rate of 250 ml/min. The relative humidity (RH) was measured by a calibrated Vaisala RH probe (dynamic range of 0-95% RH), located near the sample. The weight change, (mass relaxation) of the sample as a function of % RH was constantly monitored by the microbalance (accuracy ±0.001 mg). Typically 10-20 mg of sample was placed in a tared mesh stainless steel basket under ambient conditions. The sample was loaded and unloaded at 40% RH and 25° C. (typical room conditions). A moisture sorption isotherm was performed as outlined below (2 scans giving 1 complete cycle). The standard isotherm was performed at 25° C. at 10% RH intervals over a 0-90% RH range.
The software uses a least squares minimisation procedure together with a model of the mass relaxation, to predict an asymptotic value. The measured mass relaxation value must be within 5% of that predicted by the software, before the next % RH value is selected. The minimum equilibration time was set to 1 hour and the maximum to 4 hours. The sample was recovered after completion of the isotherm and re-analysed by XRPD.

[6] = Solubility assessment using free base Hydrate Form 2
Experimental: The best solvent systems (clear solutions) were methanol:anisole 1:1 and DMSO (10 volumes, at RT), dioxane (10 volumes, 50° C.), chloroform (20 volumes, RT). […]

[7] = 2-Week comparative stability studies; conditions: 2 weeks; 5° C. (closed); ambient (closed); ambient (closed-exposed to light); ambient (open); 60° C. (closed); RT/75% RH (open); 40° C./75% RH (open)
Experimental: (closed); (ii) ambient (closed); (iii) ambient (closed-exposed to light); (iv) ambient (open); (v) 60° C. (closed); (vi) RT/75% RH (open); and (vii) 40° C./75% RH (open).

[8] = Stability of Hydrate Form 2 of free base: maturation in water or acetic acid:water; conditions: 40 hours; remark: listed apart in the source
[9] = listed as Compound 1 Free Base Form 2

COc1cc(-c2cccc3cc([C@H](C)Nc4nc(N)ncc4C#N)n(-c4ccccc4)c(=O)c23)ccn1 [Form 2 of the free base of Compound 1, (S)-2-amino-4-((1-(8-(2-methoxypyridin-4-yl)-1-oxo-2-phenyl-1,2-dihydroisoquinolin-3-yl)ethyl)amino)pyrimidine-5-carbonitrile]
solubility thermodynamic [1]: 5 µg/mL (≈ 10.2 µM)
Stability on storage at 25° C./93% RH [2]: stable
Stability on storage at 25° C./93% RH [2, 9]: Very slight changes after 1 week
Stability on storage at 25° C./93% RH ([2]; listed as Free base Form 2): mainly the same pattern with a few differences
Solid form (XRPD) after maturation ([3]; acetic acid:water 1:3, 25° C.): stable
Solid form (XRPD) after maturation ([3]; acetic acid:water 1:3, 25° C., listed as Hydrate Form 2 of free base of Compound 1): unchanged Form 2
Solid form (XRPD) after maturation ([3]; pure water, 25° C.): stable
Solid form (XRPD) after maturation ([3]; pure water, 25° C., listed as Hydrate Form 2 of free base of Compound 1): unchanged Form 2
Stability on storage at 40° C./75% RH [4]: stable
Stability on storage at 40° C./75% RH [4, 9]: Very slight changes after 1 week
Stability on storage at 40° C./75% RH ([4]; listed as Free base Form 2): mainly the same pattern with a few differences
dissolution rate (Dissolution): about 80%
GVS: moisture uptake on loading between 40-50% RH [5]: 1 % w/w
GVS: moisture on loading ([5]; loaded at 40% RH, 25° C., listed as Compound 1 Free Base Form 2): 4.7% w/w moisture on loading. Immediate
GVS: moisture content reached on uptake at 40-50% RH [5, 9]: moisture uptake (40-50% RH up to 5.7% w/w)
GVS: moisture content reached on uptake at 40-50% RH ([5]; listed as Free base Form 2): 5.7 % w/w
solvent volumes giving a clear solution ([6]; 2-methyltetrahydrofuran): 50 volumes
solvent volumes giving a clear solution ([6]; DCM): 100 volumes
solvent volumes giving a clear solution ([6]; DCM:methanol 1:1): 100 volumes
solvent volumes giving a clear solution ([6]; DME): 100 volumes
solvent volumes giving a clear solution ([6]; DMSO, at RT): 10 volumes
solvent volumes giving a clear solution ([6]; THF): 100 volumes
solvent volumes giving a clear solution ([6]; THF:5% water): 50 volumes
solvent volumes giving a clear solution ([6]; acetonitrile/5% water): 100 volumes
solvent volumes giving a clear solution ([6]; chloroform, RT): 20 volumes
solvent volumes giving a clear solution ([6]; dioxane, 50° C.): 10 volumes
solvent volumes giving a clear solution ([6]; ethanol:anisole): 50 volumes
solvent volumes giving a clear solution ([6]; methanol): 100 volumes
solvent volumes giving a clear solution ([6]; methanol:anisole 1:1, at RT): 10 volumes
Change of water content (KF) [7]: No significant change of water content
Solid form (XRPD) after maturation ([8]; acetic acid:water 1:3, 90° C.): some evidence of the acetic acid solvate Form 6 mixed with a majority of Form 2
Solid form (XRPD) after maturation ([8]; pure water, 90° C., listed as Hydrate Form 2 of free base of Compound 1): Form 2
